The values that follow come from ChEMBL document CHEMBL6092201, “Discovery of cyanoguanidine derivatives as biased μ-opioid receptor agonists” (2024).

The structures appear in SMILES notation. Activity calls are given as the source filed them.

Holding throughout (type): functional
Assay [1] addresses Mu-type opioid receptor (Homo sapiens) (UniProt P35372). Description: Agonist activity at MOR (unknown origin) assessed as beta-arrestin2 recruitment at 0.1 uM incubated for 90 to 180 mins by chemiluminescence based microplate reader assay relative to control. Particulars: time 90-180 min.
Assay [2] has the same target. Briefly: Agonist activity at MOR (unknown origin) assessed as cAMP accumulation at 0.5 nM relative to control.
Assay [3] shares this target. Briefly: Agonist activity at MOR (unknown origin) assessed as cAMP accumulation at 50 nM relative to control.
In assay [4] the test system is Mus musculus. Briefly: Analgesic activity in Kunming mouse assessed as increase in pain threshold at 10 mg/kg, po (reference value: 0.13 +/- 5.20 sec).
Assay [5] concerns the target Mu-type opioid receptor (Homo sapiens) (UniProt P35372). Briefly: Agonist activity at MOR (unknown origin) assessed as beta-arrestin2 recruitment at 1 uM incubated for 90 to 180 mins by chemiluminescence based microplate reader assay relative to control. The following applies: time 90-180 min.
Assay [6] has the same target. Description: Agonist activity at MOR (unknown origin) assessed as beta-arrestin2 recruitment at 10 uM incubated for 90 to 180 mins by chemiluminescence based microplate reader assay relative to control. Particulars: time 90-180 min.
For assay [7] the target is unchanged. Description: Agonist activity at MOR (unknown origin) assessed as beta-arrestin2 recruitment at 50 uM incubated for 90 to 180 mins by chemiluminescence based microplate reader assay. Particulars: time 90-180 min.

Mu-type opioid receptor (Homo sapiens), sequence (P35372 whole entry): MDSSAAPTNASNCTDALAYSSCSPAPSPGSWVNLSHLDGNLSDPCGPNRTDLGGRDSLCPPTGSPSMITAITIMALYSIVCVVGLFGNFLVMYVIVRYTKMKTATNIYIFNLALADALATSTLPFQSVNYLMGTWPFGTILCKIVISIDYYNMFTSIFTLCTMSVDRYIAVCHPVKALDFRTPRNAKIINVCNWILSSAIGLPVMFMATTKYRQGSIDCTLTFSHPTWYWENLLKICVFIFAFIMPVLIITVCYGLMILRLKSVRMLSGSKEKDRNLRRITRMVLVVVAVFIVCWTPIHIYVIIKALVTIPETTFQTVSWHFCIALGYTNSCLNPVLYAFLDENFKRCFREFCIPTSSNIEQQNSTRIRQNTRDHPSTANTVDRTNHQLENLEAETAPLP

Consider `CC(Cc1ccncc1)N/C(=N\C#N)NC[C@H](Cc1ccccc1)N(C)C` (stereo partly specified), for which the Activity is -1.1% in assay [1]; 2.9% in assay [2]; 8.6% in assay [3]; -0.9% in assay [5]; -0.5% in assay [6]. The Time in assay [4] is recorded as 12.52 s. Besides, the outcome in assay [7] was inactive.

Turning to `CC(Cc1ccco1)N/C(=N\C#N)NC[C@H](Cc1ccccc1)N(C)C` (stereo partly specified), the Activity in assay [1] was -1.3%; in assay [2], 9.5%; in assay [3], 15.6%; in assay [5] it was -1%; in assay [6], -0.8%. For the same compound, the Time in assay [4] worked out at 7.57 s. Besides, the outcome in assay [7] was inactive.

In the case of `CN(C)[C@H](CN/C(=N/C#N)NCCc1ccc(O)cc1)Cc1ccccc1`, the Activity is -0.9% in assay [1]; 13.2% in assay [2]; 19.3% in assay [3]; -0.7% in assay [5]; -0.9% in assay [6]. Further, the Time in assay [4] was found to be 6.82 s. For the same compound, the outcome in assay [7] was inactive.

With `COc1ccc2cc(CC(C)N/C(=N\C#N)NC[C@H](Cc3ccccc3)N(C)C)ccc2c1` (stereo partly specified), the Activity in assay [1] was -1%; in assay [2], 15.2%; in assay [3] it was 23.6%; in assay [5], -1%; in assay [6], -1%. The Time in assay [4] came to 10.44 s. For the same compound, the outcome in assay [7] was inactive.

For the compound `CN(C)[C@H](CN/C(=N/C#N)Nc1ccccc1)Cc1ccccc1`, the Activity was -0.5% in assay [1]; 2.1% in assay [2]; 23.1% in assay [3]; 1.9% in assay [5]; 15.9% in assay [6]. For the same compound, in assay [4], the Time is 20.94 s. In addition, in assay [7], the result was inactive.

For the compound `CN(C)[C@H](CN/C(=N/C#N)NCCc1cccc(F)c1)Cc1ccccc1`, the Activity was -0.7% in assay [1]; 7.4% in assay [2]; 14.4% in assay [3]; -0.3% in assay [5]; 4.8% in assay [6]. Moreover, the Time in assay [4] was determined as 8.86 s. Moreover, the result in assay [7] was inactive.

Consider `CC(Cc1ccsc1)N/C(=N\C#N)NC[C@H](Cc1ccccc1)N(C)C` (stereo partly specified), for which the Activity was -1% in assay [1]; -0.8% in assay [2]; 9.1% in assay [3]; -0.6% in assay [5]; 1.9% in assay [6]. The Time in assay [4] turned out to be 22.76 s. For the same compound, the result in assay [7] was inactive.

With `CC(Cc1ccc[nH]1)N/C(=N\C#N)NC[C@H](Cc1ccccc1)N(C)C` (stereo partly specified), the Activity in assay [1] was -1%; in assay [2], 5.8%; in assay [3] it was 24.3%; in assay [5], -0.4%; in assay [6] it was 7.9%. Besides, the Time in assay [4] is 17.58 s. The result in assay [7] was inactive.

On to `CC(Cc1c[nH]cn1)N/C(=N\C#N)NC[C@H](Cc1ccccc1)N(C)C` (stereo partly specified), for which the Activity in assay [1] is -0.5%; in assay [2] it was -14.4%; in assay [3], 0.8%; in assay [5], -0.1%; in assay [6], 2.2%. Also, in assay [4], the Time is recorded as 11.38 s. The outcome in assay [7] was inactive.

For `COc1ccccc1N/C(=N\C#N)NC[C@H](Cc1ccccc1)N(C)C`, the Activity was -0.8% in assay [1]; 9.5% in assay [2]; 36.9% in assay [3]; 2% in assay [5]; 15.2% in assay [6]. Also, the Time in assay [4] is recorded as 7.34 s. Besides, the outcome in assay [7] was inactive.

Consider `CC(Cc1cccs1)N/C(=N\C#N)NC[C@H](Cc1ccccc1)N(C)C` (stereo partly specified), for which the Activity in assay [1] is -0.9%; in assay [2], 12.4%; in assay [3], 37.2%; in assay [5], -0.4%; in assay [6] it was 2%. Further, the Time in assay [4] was 21.8 s. Also, in assay [7], the outcome was inactive.

`COc1ccc(CN/C(=N\C#N)NC[C@H](Cc2ccc(O)cc2)N(C)C)cc1`: the Activity in assay [1] was -1%; in assay [2], 18.5%; in assay [3] it was 19.8%; in assay [5], -0.8%; in assay [6] it was -0.9%. The Time in assay [4] came out at 12.41 s. In addition, in assay [7], the result was inactive.

Turning to `CC(Cc1cccnc1)N/C(=N\C#N)NC[C@H](Cc1ccccc1)N(C)C` (stereo partly specified), the Activity in assay [1] was -1.1%; in assay [2], 9.3%; in assay [3], 9.5%; in assay [5], -0.9%; in assay [6], -0.6%. The Time in assay [4] came to 15.75 s. Besides, in assay [7], the result was inactive.

As for `COc1ccccc1N/C(=N\C#N)NC[C@H](Cc1ccc(O)cc1)N(C)C`, the Activity is -1.2% in assay [1]; 25.5% in assay [2]; 32.9% in assay [3]; -1% in assay [5]; -1% in assay [6]. In addition, the Time in assay [4] stood at 7.76 s. For the same compound, the outcome in assay [7] was inactive.

Regarding `CN(C)[C@H](CN/C(=N/C#N)NCCc1ccccc1)Cc1ccccc1`, the Activity in assay [1] is -0.9%; in assay [2], 25.9%; in assay [3], 28%; in assay [5] it was -0.2%; in assay [6], 2%. Also, the Time in assay [4] is 19.93 s. In addition, the result in assay [7] was inactive.

Consider `CC(Cc1cc[nH]n1)N/C(=N\C#N)NC[C@H](Cc1ccccc1)N(C)C` (stereo partly specified), for which the Activity in assay [1] was -0.4%; in assay [2], -2.5%; in assay [3], -15.2%; in assay [5], -0.7%; in assay [6] it was -0.6%. Besides, the Time in assay [4] stood at 15.44 s. The result in assay [7] was inactive.

As for `COc1cccc(CCN/C(=N\C#N)NC[C@H](Cc2ccccc2)N(C)C)c1`, the Activity was -1% in assay [1]; 3.3% in assay [2]; 10.3% in assay [3]; -0.6% in assay [5]; 23% in assay [6]. Moreover, the Time in assay [4] stood at 12.47 s. Moreover, the result in assay [7] was inactive.

As to `COc1ccc(CN/C(=N\C#N)NC[C@H](Cc2ccccc2)N(C)C)cc1`, the Activity was -0.9% in assay [1]; 2.9% in assay [2]; 14.4% in assay [3]; -0.6% in assay [5]; 0.9% in assay [6]. The Time in assay [4] turned out to be 14.34 s. Besides, the outcome in assay [7] was inactive.

As to `CN(C)[C@H](CN/C(=N/C#N)NCCc1ccccc1)Cc1ccc(O)cc1`, the Activity in assay [1] was -0.9%; in assay [2], 8.6%; in assay [3], 4.1%; in assay [5] it was -0.7%; in assay [6], -0.7%. Besides, in assay [4], the Time turned out to be 6.89 s. For the same compound, the outcome in assay [7] was inactive.

On to `CC(Cc1c[nH]c2ccccc12)N/C(=N\C#N)NC[C@H](Cc1ccccc1)N(C)C` (stereo partly specified), for which the Activity in assay [1] was -0.9%; in assay [2], 11.1%; in assay [3], 17.7%; in assay [5] it was -0.9%; in assay [6], -0.7%. Further, in assay [4], the Time stood at 11.63 s. Moreover, the result in assay [7] was inactive.

Take `CN1CC[C@]23c4c5ccc(O)c4O[C@H]2[C@@H](O)C=C[C@H]3[C@H]1C5` [MORPHINE]: the Time in assay [4] is 22.79 s.
